Article PMC4530782 (Bioorganic & medicinal chemistry letters, 2011)

What was measured:
[1] = system: Stat3 phosphorylation in MDA-468 cells; format: cell-based, human; details: 24 hrs
[2] = system: Stat3 phosphorylation in JJN3 cells; format: cell-based, human; details: 24 hrs
Water solubility = format: physicochemical; details: compared with 7 and 17e
breast tumor xenografts = details: cited from earlier work
[3] = system: DU145 (prostate) cancer cells; assay: Whole cell MTS cytotoxicity assay, DU145; format: cell-based; details: Homo sapiens, DU-145, 72 h, read-out: EC50 DU145
Stat1 = details: read-out: Stat1 Ki, fluorescence polarization; earlier work on 7; cited from earlier work
[4] = system: MDA-468 (breast) cancer cells; assay: Whole cell MTS cytotoxicity assay, MDA-468; format: cell-based; details: Homo sapiens, 72 h, read-out: EC50 MDA-468
[5] = system: JJN3 (multiple myeloma) cancer cells; assay: Whole cell MTS cytotoxicity assay, JJN3; format: cell-based; details: Homo sapiens, JJN-3, 72 h, read-out: EC50 JJN3
[6] = system: NIH3T3, TE-71 and HPDEC cells; details: cited from earlier work
Stat5 = details: read-out: Stat5 Ki, fluorescence polarization; earlier work on 7; cited from earlier work

Row | Structure (SMILES) | levels of Stat3 downstream targets (cMYC, Bcl-xL, Survivin) ([1]; immunoblotting) | levels of Stat3 downstream targets (cMYC, Bcl-xL, Survivin) ([2]; immunoblotting) | water solubility (in words) (Water solubility) | in vivo effect on breast tumor xenografts (breast tumor xenografts) | EC50 [3] | Ki (Stat1) | EC50 [4] | EC50 [5] | concentration at which Stat3 phosphorylation is inhibited ([1]; Western blot) | effects against 'healthy' cells lacking activated Stat3 [6] | concentration at which Stat3 phosphorylation is inhibited ([2]; Western blot) | Ki (Stat5)
1 | CN(CC(=O)N(Cc1ccc(C2CCCCC2)cc1)c1ccc(C(=O)O)c(O)c1)S(=O)(=O)c1c(F)c(F)c(F)c(F)c1F [17o] | effectively reduced levels of Stat3 downstream targets | effectively reduced levels of Stat3 downstream targets | much improved water solubility over both 7 and 17e | – | – | – | – | – | – | – | – | –
2 | Cc1ccc(S(=O)(=O)N(C)CC(=O)N(Cc2ccc(C3CCCCC3)cc2)c2ccc(C(=O)O)c(O)c2)cc1 [compound 7] | – | – | – | suppression of breast tumor xenografts | 37.2 ± 12.4 µM | > 25 µM | 17 ± 4.4 µM | 93.3 ± 15.8 µM | approximately 100 μM | negligible effects | approximately 100 μM | > 25 µM
